Test system: recombinant NL4-3 virus (Renilla luciferase) in MT-2 cells
Assay: HIV cell culture assay (antiviral activity, luciferase readout in infected MT-2 cells)
Format: cell-based
Settings: Renilla, NL43, read-out: Activity, antiviral activity class, recombinant NL4-3 Renilla luciferase virus in MT-2 cells
Outline: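 Nef-deleted NL4-3 carrying Renilla luciferase, produced by 293T transfection, used to infect MT-2 cells for 4–5 days with serial compound dilutions. Live-cell luciferase signal read as infection marker; EC50 from exponential median-effect equation.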

Row | SMILES | EC50 [µM]
1 | CN(C(=O)[C@H](Cc1ccccc1)NC(=O)NS(=O)(=O)Cc1ccc(C(F)(F)F)cc1)c1ccc2c(c1)OCO2 [Example 105, (S)—N-(benzo[d][1,3]dioxol-5-yl)-N-methyl-3-phenyl-2-(3-((4-(trifluoromethyl)benzyl)sulfonyl)ureido)propanamide] | 0.1 to 1
2 | CN(C(=O)[C@H](Cc1ccccc1)NC(=O)NS(=O)(=O)c1ccc(F)c(F)c1)c1ccc2c(c1)OCO2 [Example 26, (S)—N-(benzo[d][1,3]dioxol-5-yl)-2-(3-((3,4-difluorophenyl)sulfonyl)ureido)-N-methyl-3-phenylpropanamide] | 0.1 to 1
3 | CN(C(=O)[C@H](Cc1ccccc1)NC(=O)NS(=O)(=O)Cc1ccc(Cl)cc1)c1ccc2c(c1)OCO2 [Example 109, (S)—N-(benzo[d][1,3]dioxol-5-yl)-2-(3-((4-chlorobenzyl)sulfonyl)ureido)-N-methyl-3-phenylpropanamide] | 0.1 to 1
4 | CCN(C(=O)[C@H](Cc1ccccc1)NC(=O)NS(=O)(=O)c1cccc(-c2cnoc2)c1C)c1ccc(OC)cc1 [Example 159, (S)—N-ethyl-2-(3-((3-(isoxazol-4-yl)-2-methylphenyl)sulfonyl)ureido)-N-(4-methoxyphenyl)-3-phenylpropanamide] | 0.1 to 1
5 | CCN(C(=O)[C@H](Cc1ccccc1)NC(=O)NS(=O)(=O)c1cccc(-c2ccsc2Cl)c1)c1ccc(OC)cc1 [Example 150, (S)-2-(3-((3-(2-chlorothiophen-3-yl)phenyl)sulfonyl)ureido)-N-ethyl-N-ethyl-N-(4-methoxyphenyl)-3-phenylpropanamide] | 0.1 to 1
6 | CC(C)c1ccccc1S(=O)(=O)NC(=O)N[C@@H](Cc1ccccc1)C(=O)N(C)c1ccc2c(c1)OCO2 [Example 135, (S)—N-(benzo[d][1,3]dioxol-5-yl)-2-(3-((2-isopropylphenyl)sulfonyl)ureido)-N-methyl-3-phenylpropanamide] | 0.1 to 1
7 | CN(C(=O)[C@H](Cc1ccccc1)NC(=O)NS(=O)(=O)c1cc(F)ccc1F)c1ccc2c(c1)OCO2 [Example 99, (S)—N-(benzo[d][1,3]dioxol-5-yl)-2-(3-((2,5-difluorophenyl)sulfonyl)ureido)-N-methyl-3-phenylpropanamide] | 0.1 to 1
8 | COc1ccc(N(C)C(=O)[C@H](CC2CCCCC2)NC(=O)NS(=O)(=O)c2ccccc2C)cc1 [Example 195, (S)-3-cyclohexyl-N-(4-methoxyphenyl)-N-methyl-2-(3-(o-tolylsulfonyl)ureido)propanamide] | 1 to 10
9 | CCN(C(=O)[C@H](Cc1ccccc1)NC(=O)NS(=O)(=O)c1ccccc1C)c1ccc(Cl)c(C(F)(F)F)c1 [Example 182, (S)—N-(4-chloro-3-(trifluoromethyl)phenyl)-N-ethyl-3-phenyl-2-(3-(o-tolylsulfonyl)ureido)propanamide] | 0.1 to 1
10 | CN(C(=O)[C@H](Cc1ccccc1)NC(=O)NS(=O)(=O)c1c(F)cccc1F)c1ccc2c(c1)OCO2 [Example 98, (S)—N-(benzo[d][1,3]dioxol-5-yl)-2-(3-((2,6-difluorophenyl)sulfonyl)ureido)-N-methyl-3-phenylpropanamide] | < 0.1
11 | Cc1ccccc1S(=O)(=O)NC(=O)N[C@@H](Cc1cc(F)cc(F)c1)C(=O)N(C)c1ccc2c(c1)OCO2 [Example 67, (S)—N-(benzo[d][1,3]dioxol-5-yl)-3-(3,5-difluorophenyl)-N-methyl-2-(3-(o-tolylsulfonyl)ureido)propanamide] | 0.1 to 1
12 | CN(C(=O)[C@H](Cc1ccccc1)NC(=O)NS(=O)(=O)C1CCCCC1)c1ccc2c(c1)OCO2 [Example 111, (S)—N-(benzo[d][1,3]dioxol-5-yl)-2-(3-(cyclohexylsulfonyl)ureido)-N-methyl-3-phenylpropanamide] | 0.1 to 1
13 | CN(C(=O)[C@H](Cc1cc(F)cc(F)c1)NC(=O)NS(=O)(=O)c1cc(F)ccc1F)c1ccc2scnc2c1 [Example ZY-14, (S)—N-(benzo[d]thiazol-5-yl)-3-(3,5-difluorophenyl)-2-(3-((2,5-difluorophenyl)sulfonyl)ureido)-N-methylpropanamide] | 0.1 to 1
14 | CN(C(=O)[C@H](Cc1ccccc1)NC(=O)NS(=O)(=O)c1cccc(Cl)c1Cl)c1ccc2c(c1)OCO2 [Example 15, (S)—N-(benzo[d][1,3]dioxol-5-yl)-2-(3-((2,3-dichlorophenyl)sulfonyl)ureido)-N-methyl-3-phenylpropanamide] | < 0.1
15 | Cc1ccccc1S(=O)(=O)NC(=O)N[C@@H](Cc1cc(F)cc(F)c1)C(=O)N(C)c1ccc2c(c1)OC(F)(F)O2 [Example 40, (S)—N-(2,2-difluorobenzo[d][1,3]dioxol-5-yl)-3-(3,5-difluorophenyl)-N-methyl-2-(3-(o-tolylsulfonyl)ureido)propanamide] | 0.1 to 1
16 | Cc1ccccc1S(=O)(=O)NC(=O)N[C@@H](Cc1ccccc1)C(=O)N(C)c1ccc2ncccc2c1 [Example CA-71, (S)—N-methyl-3-phenyl-N-(quinolin-6-yl)-2-(3-(o-tolylsulfonyl)ureido)propanamide] | < 0.1

Row | SMILES | EC50 [µM]
17 | CCCc1cccc(S(=O)(=O)NC(=O)N[C@@H](Cc2ccccc2)C(=O)N(CC)c2ccc(OC)cc2)c1 [Example 142, (S)—N-ethyl-N-(4-methoxyphenyl)-3-phenyl-2-(3-((3-propylphenyl)sulfonyl)ureido)propanamide] | < 0.1
18 | COc1ccc(C[C@H](NC(=O)NS(=O)(=O)c2ccccc2C)C(=O)N(C)c2ccc3c(c2)OCO3)cc1 [Example 56, (S)—N-(benzo[d][1,3]dioxol-5-yl)-3-(4-methoxyphenyl)-N-methyl-2-(3-(o-tolylsulfonyl)ureido)propanamide] | 1 to 10
19 | Cc1ccccc1S(=O)(=O)NC(=O)N[C@@H](Cc1ccccc1F)C(=O)N(C)c1ccc2c(c1)OCO2 [Example 70, (S)—N-(benzo[d][1,3]dioxol-5-yl)-3-(2-fluorophenyl)-N-methyl-2-(3-(o-tolylsulfonyl)ureido)propanamide] | 0.1 to 1
20 | CN(C(=O)[C@H](Cc1ccccc1)NC(=O)NS(=O)(=O)C1(Cc2ccccc2)CC1)c1ccc2c(c1)OCO2 [Example 107, (S)—N-(benzo[d][1,3]dioxol-5-yl)-2-(3-((1-benzylcyclopropyl)sulfonyl)ureido)-N-methyl-3-phenylpropanamide] | 1 to 10
21 | CCOc1ccc(C[C@H](NC(=O)NS(=O)(=O)c2ccccc2C)C(=O)N(C)c2ccc3c(c2)OCO3)cc1 [Example 52, (S)—N-(benzo[d][1,3]dioxol-5-yl)-3-(4-ethoxyphenyl)-N-methyl-2-(3-(o-tolylsulfonyl)ureido)propanamide] | 1 to 10
22 | Cc1ccccc1S(=O)(=O)NC(=O)N[C@@H](Cc1cc(F)cc(F)c1)C(=O)N(C)c1ccc2cccnc2c1 [Example CA-104, (S)-3-(3,5-difluorophenyl)-N-methyl-N-(quinolin-7-yl)-2-(3-(o-tolylsulfonyl)ureido)propanamide] | 0.1 to 1
23 | COc1ccc(N(C)C(=O)[C@H](Cc2cccs2)NC(=O)NS(=O)(=O)c2ccccc2C)cc1 [Example 198, (S)—N-(4-methoxyphenyl)-N-methyl-3-(thiophen-2-yl)-2-(3-(o-tolylsulfonyl)ureido)propanamide] | 0.1 to 1
24 | CN(C(=O)[C@H](Cc1ccccc1)NC(=O)NS(=O)(=O)c1ccccc1)c1cccc2ccccc12 [Example 94, (S)—N-methyl-N-(naphthalen-1-yl)-3-phenyl-2-(3-(phenylsulfonyl)ureido)-propanamide] | 10 to 100
25 | CN(C(=O)[C@H](Cc1ccccc1)NC(=O)NS(=O)(=O)c1ccccc1)c1ccc(F)cc1 [Example 91] | 0.1 to 1
26 | Cc1ccccc1S(=O)(=O)NC(=O)N[C@@H](Cc1ccccc1)C(=O)N(C)c1ccc2c(c1)CCO2 [Example CA-76, (S)—N-(2,3-dihydrobenzofuran-5-yl)-N-methyl-3-phenyl-2-(3-(o-tolylsulfonyl)ureido)propanamide] | < 0.1
27 | CN(C(=O)[C@H](Cc1cc(F)cc(F)c1)NC(=O)NS(=O)(=O)c1ccccc1)c1ccc2c(c1)OC(F)(F)O2 [Example 41, (S)—N-(2,2-difluorobenzo[d][1,3]dioxol-5-yl)-3-(3,5-difluorophenyl)-N-methyl-2-(3-(phenylsulfonyl)ureido)propanamide] | 0.1 to 1
28 | COc1ccc(N(C)C(=O)[C@H](Cc2ccccc2)NC(=O)NS(=O)(=O)c2ccccc2)cc1 [Example 92] | 0.1 to 1
29 | Cc1ccccc1S(=O)(=O)NC(=O)N[C@@H](Cc1cccc(C#N)c1)C(=O)N(C)c1ccc2c(c1)OCO2 [Example 62, (S)—N-(benzo[d][1,3]dioxol-5-yl)-3-(3-cyanophenyl)-N-methyl-2-(3-(o-tolylsulfonyl)ureido)propanamide] | 1 to 10
30 | CC(=O)Nc1ccc(N(C)C(=O)[C@H](Cc2ccccc2)NC(=O)NS(=O)(=O)c2ccccc2C)cc1O [Example CA-85, (S)—N-(4-acetamido-3-hydroxyphenyl)-N-methyl-3-phenyl-2-(3-(o-tolylsulfonyl)ureido)propanamide] | 1 to 10
31 | Cc1ccccc1S(=O)(=O)NC(=O)N[C@@H](Cc1ccc(O)cc1)C(=O)N(C)c1ccc2c(c1)OCO2 [Example 82, (S)—N-(benzo[d][1,3]dioxol-5-yl)-3-(4-hydroxyphenyl)-N-methyl-2-(3-(o-tolylsulfonyl)ureido)propanamide] | 1 to 10
32 | CN(C(=O)[C@H](Cc1ccccc1)NC(=O)NS(=O)(=O)c1ccccc1-c1cncnc1)c1ccc2c(c1)OCO2 [Example 127, (S)—N-(benzo[d][1,3]dioxol-5-yl)-N-methyl-3-phenyl-2-(3-((2-(pyrimidin-5-yl)phenyl)sulfonyl)ureido)propanamide] | 10 to 100

Same assay, conditions: Renilla, NL43, recombinant NL4-3 Renilla luciferase virus in MT-2 cells

Row | SMILES | EC50 [µM]
33 | CN(C(=O)[C@H](Cc1ccccc1)NC(=O)NS(=O)(=O)c1cc(F)ccc1F)c1ccc2c(c1)OCO2 [Example 99, (S)—N-(benzo[d][1,3]dioxol-5-yl)-2-(3-((2,5-difluorophenyl)sulfonyl)ureido)-N-methyl-3-phenylpropanamide] | 0.15
34 | CN(C(=O)[C@H](Cc1ccccc1)NC(=O)NS(=O)(=O)c1c(F)cccc1F)c1ccc2c(c1)OCO2 [Example 98, (S)—N-(benzo[d][1,3]dioxol-5-yl)-2-(3-((2,6-difluorophenyl)sulfonyl)ureido)-N-methyl-3-phenylpropanamide] | 0.09
35 | CCCc1cccc(S(=O)(=O)NC(=O)N[C@@H](Cc2ccccc2)C(=O)N(CC)c2ccc(OC)cc2)c1 [Example 142, (S)—N-ethyl-N-(4-methoxyphenyl)-3-phenyl-2-(3-((3-propylphenyl)sulfonyl)ureido)propanamide] | 0.06
36 | Cc1ccccc1S(=O)(=O)NC(=O)N[C@@H](Cc1ccccc1)C(=O)N1C[C@@H]2C[C@H]1CO2 [Example 187, N—(((S)-1-((1S,4S)-2-oxa-5-azabicyclo[2.2.1]heptan-5-yl)-1-oxo-3-phenylpropan-2-yl)carbamoyl)-2-methylbenzenesulfonamide] | > 33.3
37 | CCOc1ccc(C[C@H](NC(=O)NS(=O)(=O)c2ccccc2C)C(=O)N(C)c2ccc3c(c2)OCO3)cc1 [Example 52, (S)—N-(benzo[d][1,3]dioxol-5-yl)-3-(4-ethoxyphenyl)-N-methyl-2-(3-(o-tolylsulfonyl)ureido)propanamide] | 6.23
38 | COc1ccc(N(C)C(=O)[C@H](Cc2cccs2)NC(=O)NS(=O)(=O)c2ccccc2C)cc1 [Example 198, (S)—N-(4-methoxyphenyl)-N-methyl-3-(thiophen-2-yl)-2-(3-(o-tolylsulfonyl)ureido)propanamide] | 0.27
39 | CN(C(=O)[C@H](Cc1ccccc1)NC(=O)NS(=O)(=O)c1ccccc1-c1cncnc1)c1ccc2c(c1)OCO2 [Example 127, (S)—N-(benzo[d][1,3]dioxol-5-yl)-N-methyl-3-phenyl-2-(3-((2-(pyrimidin-5-yl)phenyl)sulfonyl)ureido)propanamide] | 21.7

Reference: patent publication US10035760B2, “Inhibitors of human immunodeficiency virus replication” (priority 2013, dated 2018)
